From ChEMBL document CHEMBL5726153, “Benzimidazole derivatives as kinase inhibitors” (2019)
Values joined by “and” are separate entries in the source; they are usually repeats but may differ in a detail not shown here. Identical values can stand only once.

Target: Voltage-gated inwardly rectifying potassium channel KCNH2 (Homo sapiens, UniProt Q12809)
Assay: Determination of a Possible Activity on hERG: The hERG (human ether-A-go-go-related gene) channel corresponds to an important anti-target for potential new drugs since its inhibition may lead to sudden death. In order to establish whether the compounds of the present invention act on hERG, the following experiment was carried out.The in vitro effects of the compounds indicated in Table 5 on the …
Type: cell-based

Chain of Voltage-gated inwardly rectifying potassium channel KCNH2 (Q12809 whole entry): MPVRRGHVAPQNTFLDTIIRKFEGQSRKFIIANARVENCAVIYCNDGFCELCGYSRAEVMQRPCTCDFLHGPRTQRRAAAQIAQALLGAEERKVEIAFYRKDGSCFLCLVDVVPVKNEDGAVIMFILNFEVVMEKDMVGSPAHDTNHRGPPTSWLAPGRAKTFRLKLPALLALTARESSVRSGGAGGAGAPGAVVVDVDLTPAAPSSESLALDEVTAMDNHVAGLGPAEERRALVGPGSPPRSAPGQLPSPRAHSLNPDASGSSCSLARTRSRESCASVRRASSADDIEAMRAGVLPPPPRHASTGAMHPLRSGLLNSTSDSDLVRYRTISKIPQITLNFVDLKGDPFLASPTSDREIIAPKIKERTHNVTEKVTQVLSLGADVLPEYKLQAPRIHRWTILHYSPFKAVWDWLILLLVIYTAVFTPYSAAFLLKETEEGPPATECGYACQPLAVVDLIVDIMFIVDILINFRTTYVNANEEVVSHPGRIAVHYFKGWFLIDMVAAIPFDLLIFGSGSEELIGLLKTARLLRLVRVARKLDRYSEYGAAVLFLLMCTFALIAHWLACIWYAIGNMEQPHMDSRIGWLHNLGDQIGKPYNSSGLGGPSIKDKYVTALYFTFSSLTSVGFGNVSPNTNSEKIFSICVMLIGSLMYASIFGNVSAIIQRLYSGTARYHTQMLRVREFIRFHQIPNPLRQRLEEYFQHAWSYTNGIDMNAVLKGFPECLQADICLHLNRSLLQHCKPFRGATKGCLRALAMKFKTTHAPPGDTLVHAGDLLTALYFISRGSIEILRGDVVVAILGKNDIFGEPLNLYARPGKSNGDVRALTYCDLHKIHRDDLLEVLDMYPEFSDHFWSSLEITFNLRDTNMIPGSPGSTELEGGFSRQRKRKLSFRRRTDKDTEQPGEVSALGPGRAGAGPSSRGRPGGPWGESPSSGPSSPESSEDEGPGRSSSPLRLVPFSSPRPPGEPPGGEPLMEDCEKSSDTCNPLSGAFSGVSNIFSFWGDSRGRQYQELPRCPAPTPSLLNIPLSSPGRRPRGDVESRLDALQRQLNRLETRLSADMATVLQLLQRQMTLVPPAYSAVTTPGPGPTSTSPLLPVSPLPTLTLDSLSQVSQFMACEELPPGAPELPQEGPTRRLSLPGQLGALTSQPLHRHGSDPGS

CCn1c(N2CCNC(=O)C2)nc2c([N+](=O)[O-])c(Br)c(Br)cc21
IC50: 1.78 µM and 11.9 µM

CCn1c(N2CCNCC2)nc2c([N+](=O)[O-])c(Br)c(Br)cc21
IC50: 16.9 µM
